The record followed here is patent US12384780B2, “PARP1 inhibitors and uses thereof” (XinThera, Inc., priority 2022, dated 2025).

One assay deals with T1, PARP1 (Homo sapiens, UniProt P09874).
T1 construct: made in house
Description: Biochemical fluorescent polarization (FP) assay, displacement of PARPi-FL, PARP1. Conditions: 20 nM protein, 3 nM PARPi-FL, 4 h at room temperature; for IC50: read-out: FP PARP1 pIC50 (converted). It counts as binding. Here is the method:
(§1) Compounds were characterized using an assay measuring the displacement of a commercially available fluorescently labeled PARP 1/2 inhibitor (PARPi-FL, Tocris Biosciences, #6461) as exemplified in assays performed in WO2014/064149 and WO2021/013735A1. The assay was performed utilizing the following method: Compounds were dissolved in DMSO an Echo550 liquid handler was utilized to make serial dilations in the desired concentration range in Optiplate-384F plates. 100% DMSO was used for the high (with protein) and low (without protein) control samples. 20 nL of compound or DMSO alone was added to individual assay plate wells. PARP1 and PARP2 protein were expressed, purified, and diluted in assay buffer containing 50 mM Tris pH 8.0, 0.001% Triton X-100, 10 mM MgCl2, 150 mM NaCl to a final concentration of 20 nM. The PARPi-FL was then added at a final concentration of 3 nM. The assay plate was centrifuged at 1000 rpm for 1 min and incubated for 4 h at room temperature. […] [formula]

The target of a further assay is T2, PARP2 (Homo sapiens, UniProt Q9UGN5).
T2 construct: made in house
Description: Biochemical fluorescent polarization (FP) assay, displacement of PARPi-FL, PARP2. The assay is classed as binding. Conditions: 20 nM protein, 3 nM PARPi-FL, 4 h at room temperature; read-out: FP PARP2 pIC50 (converted). The protocol:
as §1

A further assay concerns DLD-1 BRCA2(−/−) cells. Kind of assay: Cell growth inhibition assay (CellTiter-Glo), DLD-1 BRCA2(−/−). The assay is classed as cell-based. Conditions: 200 cells/well, 7 days, CellTiter Glo 2.0; for EC50: Homo sapiens, DLD-1, 168 h, read-out: DLD-1 BRCA2(−/−) pEC50 (converted). Here is the method:
(§2) Cell proliferation was measured through the cell viability assay using DLD-1 BRCA2(−/−) and parental isogenic pair and MDA-MB-436 (mutated BRCA1) cell lines. The CellTiter-Glo (CTG) based cell viability assay is designed to determine the number of viable cells in the culture because of compound effect, by quantifying ATP, which indicates the presence of metabolically active cells.
(§3) DLD-1 BRCA2(−/−) and parental isogenic pair were cultured in RPMI 1640 supplemented with […] (FBS), and […] cells were cultured in DMEM supplemented with 10% FBS. Both were cultured at 37° C. with […]. Invention compounds were distributed to the 384 well plate (Corning, 3764) using Echo acoustic liquid handler to form a 1:3 serially diluted final concentration with top dose of 10 or 30 μM. The cells were seeded into the plate in the density of 50 cells/well (DLD-1 parental), 200 cells/well (DLD-1 BRCA2−/−), or 500 cells/well (MDA-MB-436). After a short spun, the cells were cultured in a well moisturized incubator at 37° C. with 5% CO2 for 7 days without disturbance. The cell viability was measured by CellTiter Glo 2.0 assay kit (Promega, G9243), and growth inhibition rate was calculated and plotted against final compound concentration, and the data were fitted in Xfit to generate IC50 values.
On the technique in general: In ATP-based viability assays light output follows the ATP content of the culture.

Assay [1] concerns MDA-MB-436 (mutated BRCA1) cells. Description: Cell growth inhibition assay (CellTiter-Glo), MDA-MB-436. Conditions: 500 cells/well, 7 days, CellTiter Glo 2.0; for EC50: Homo sapiens, MDA-MB-436, 168 h, read-out: MDA-MB-436 pEC50 (converted). The assay is classed as cell-based. Here is the method:
as §2, §3

T2 sequence (Q9UGN5 whole entry): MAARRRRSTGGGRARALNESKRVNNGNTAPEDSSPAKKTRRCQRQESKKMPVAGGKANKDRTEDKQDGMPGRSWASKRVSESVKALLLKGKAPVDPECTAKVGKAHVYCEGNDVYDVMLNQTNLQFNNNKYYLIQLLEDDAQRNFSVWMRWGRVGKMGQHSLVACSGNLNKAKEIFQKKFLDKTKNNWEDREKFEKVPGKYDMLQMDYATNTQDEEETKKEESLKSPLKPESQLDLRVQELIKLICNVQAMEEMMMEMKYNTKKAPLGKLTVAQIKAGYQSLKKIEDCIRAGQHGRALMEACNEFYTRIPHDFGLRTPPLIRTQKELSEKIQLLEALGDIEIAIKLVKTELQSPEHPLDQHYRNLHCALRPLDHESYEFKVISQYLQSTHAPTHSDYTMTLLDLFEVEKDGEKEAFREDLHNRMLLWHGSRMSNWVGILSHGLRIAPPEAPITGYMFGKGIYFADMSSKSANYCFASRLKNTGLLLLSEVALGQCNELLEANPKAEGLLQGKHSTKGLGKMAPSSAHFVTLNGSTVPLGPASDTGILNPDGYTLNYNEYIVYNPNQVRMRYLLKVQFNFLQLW
T1 sequence (P09874 whole entry): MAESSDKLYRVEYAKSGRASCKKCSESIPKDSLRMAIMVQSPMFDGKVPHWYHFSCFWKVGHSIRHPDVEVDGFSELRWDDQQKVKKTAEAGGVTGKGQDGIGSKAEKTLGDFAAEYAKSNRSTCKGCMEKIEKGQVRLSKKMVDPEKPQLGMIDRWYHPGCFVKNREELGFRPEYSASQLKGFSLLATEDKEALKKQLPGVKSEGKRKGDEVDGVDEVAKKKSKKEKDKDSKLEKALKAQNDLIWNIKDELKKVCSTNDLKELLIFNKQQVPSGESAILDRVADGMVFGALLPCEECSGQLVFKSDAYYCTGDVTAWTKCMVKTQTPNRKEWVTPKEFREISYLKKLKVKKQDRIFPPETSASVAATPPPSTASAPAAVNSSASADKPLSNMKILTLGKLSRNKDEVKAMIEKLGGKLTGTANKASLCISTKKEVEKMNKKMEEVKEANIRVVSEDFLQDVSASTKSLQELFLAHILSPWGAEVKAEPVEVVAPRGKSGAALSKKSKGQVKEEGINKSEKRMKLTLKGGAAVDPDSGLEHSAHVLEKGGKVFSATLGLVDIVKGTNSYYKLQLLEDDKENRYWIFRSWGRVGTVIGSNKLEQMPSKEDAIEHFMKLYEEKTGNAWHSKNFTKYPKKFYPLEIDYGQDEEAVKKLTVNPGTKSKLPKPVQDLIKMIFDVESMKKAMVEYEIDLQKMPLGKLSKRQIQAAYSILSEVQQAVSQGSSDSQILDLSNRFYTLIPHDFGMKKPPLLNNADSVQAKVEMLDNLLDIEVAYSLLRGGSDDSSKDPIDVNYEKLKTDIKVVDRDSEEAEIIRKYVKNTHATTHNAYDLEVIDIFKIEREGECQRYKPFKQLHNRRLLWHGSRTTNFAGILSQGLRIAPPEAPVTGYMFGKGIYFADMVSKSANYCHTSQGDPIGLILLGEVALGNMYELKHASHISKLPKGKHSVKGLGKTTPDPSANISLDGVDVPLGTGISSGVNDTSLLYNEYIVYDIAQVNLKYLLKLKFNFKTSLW

As to `Cc1cc2ncc([C@H](C)N3CCN(c4ccc(C#N)cn4)[C@H](C)C3)cc2[nH]c1=O` (single isomer, unassigned) [Example 29], the IC50 on PARP1 was 6.31 nM; at PARP2, > 100000 nM. Besides, the EC50 was 63.1 nM in the assay with DLD-1 BRCA2(−/−) cells and 79.4 nM in assay [1].
For `Cc1cc2ncc([C@H](C)N3CCN(c4ccc(C#N)cn4)CC3)cc2[nH]c1=O` (single isomer, unassigned) [Example 32], in that order: 3.98 nM, > 100000 nM, 12.6 nM and 7.94 nM.
On the same counts, the results for `Cc1cc2ncc([C@@H](C)N3CCN(c4ccc(C#N)cn4)CC3)cc2[nH]c1=O` (single isomer, unassigned) [Example 33] are 2.51 nM, 6310 nM, 3.16 nM and 2.51 nM.
On the same counts, the results for `N#Cc1ccc(N2CCN(Cc3cnc4cc(C5CCCO5)c(=O)[nH]c4c3)CC2)nc1` (single isomer, unassigned) [Example 68, 6-(4-{[6-oxo-7-(oxolan-2-yl)-5H-1,5-naphthyridin-3-yl]methyl}piperazin-1-yl)pyridine-3-carbonitrile] are 12.6 nM, 79400 nM, 39.8 nM and 25.1 nM.
Consider `N#Cc1ccc(N2CCN(Cc3cnc4cc(C5CCCO5)c(=O)[nH]c4c3)CC2)nc1` (single isomer, unassigned) [Example 69, 6-(4-{[6-oxo-7-(oxolan-2-yl)-5H-1,5-naphthyridin-3-yl]methyl}piperazin-1-yl)pyridine-3-carbonitrile], for which the IC50 on PARP1 is 10 nM; at PARP2 it was 39800 nM. For the same molecule, the “DLD-1 BRCA2(−/−) pEC50” value in the assay with DLD-1 BRCA2(−/−) cells is listed as 7.4. For the same molecule, the “MDA-MB-436 pEC50” value in assay [1] was 7.8.
Take `Cc1c(Cl)c(=O)[nH]c2cc(CN3CCN(c4ccc(C#N)cc4)CC3)cnc12` [Example 2, 4-{4-[(7-chloro-8-methyl-6-oxo-5H-1,5-naphthyridin-3-yl)methyl]piperazin-1-yl}benzonitrile]: the IC50 is 50.1 nM on PARP1 and 7940 nM at PARP2. For the same molecule, the EC50 with DLD-1 BRCA2(−/−) cells was 1.58 nM; in assay [1], 1.26 nM.
As for `CCc1nc2c(F)cc(CN3CCN(c4ccc(C#N)cn4)CC3)cc2[nH]c1=O` [Example 5, 6-(4-((2-ethyl-8-fluoro-3-oxo-3,4-dihydroquinoxalin-6-yl)methyl)piperazin-1-yl)nicotinonitrile], at PARP1, the “FP PARP1 pIC50” value worked out at 8.5. Moreover, on PARP2, the IC50 was > 100000 nM. For the same molecule, the EC50 (in the assay on DLD-1 BRCA2(−/−) cells; in assay [1]) was 3.98 nM throughout.
In the case of `CCc1cc2ncc(CN3CCN(c4ccc(Br)cn4)CC3)cc2[nH]c1=O` [Example 7], the values for the IC50 at PARP1 and on PARP2 were 25.1 nM and > 100000 nM, respectively. Also, the EC50 (in the assay with DLD-1 BRCA2(−/−) cells; in assay [1]) was 6.31 nM throughout.
Consider `CCc1cc2ncc(CN3CCN(c4ccc(Cl)cn4)CC3)cc2[nH]c1=O` [Example 8], for which the IC50 on PARP1 was 15.8 nM; at PARP2 it was > 100000 nM. Besides, the results for the EC50 (in the assay on DLD-1 BRCA2(−/−) cells; in assay [1]) were 5.01 nM and 3.16 nM, respectively.
On the same counts, the results for `CCc1cc2ncc(CN3CCN(c4ccc(C#N)cc4)CC3)cc2[nH]c1=O` [Example 9] are 6.31 nM, 1580 nM, 0.501 nM and 0.501 nM.
Consider `CCc1cc2ncc(CN3CCN(c4ccc(C#N)cn4)CC3)cc2[nH]c1=O` [Example 10], for which the IC50 at PARP1 is 5.01 nM; on PARP2, 5010 nM. Also, the EC50 (with DLD-1 BRCA2(−/−) cells; in assay [1]) was 0.794 nM each time.
In the case of `Cc1cc2ncc(CN3CCN(c4ccc(C#N)nc4)CC3)cc2[nH]c1=O` [Example 11], the results for the IC50 at PARP1 and on PARP2 were 10 nM and 79400 nM, respectively. In addition, the EC50 in the assay on DLD-1 BRCA2(−/−) cells is 20 nM; in assay [1], 39.8 nM.
For `Cc1cc2ncc(CN3CCN(c4cc(F)c(C#N)cc4F)CC3)cc2[nH]c1=O` [Example 13], in that order: 5.01 nM, > 100000 nM, 5.01 nM and 3.98 nM.
As for `O=c1[nH]c2cc(CN3CCN(c4ccc(F)cn4)CC3)cnc2cc1C1CC1` [Example 16, 3-cyclopropyl-7-{[4-(5-fluoropyridin-2-yl)piperazin-1-yl]methyl}-1H-1,5-naphthyridin-2-one], the “FP PARP1 pIC50” value on PARP1 is given as 8.5. Moreover, the IC50 on PARP2 is 2510 nM. For the same molecule, the EC50 (with DLD-1 BRCA2(−/−) cells; in assay [1]) was 10 nM each time.
`Cc1cc2ncc(CN3CCN(c4ccc(C#N)cc4F)CC3)cc2[nH]c1=O` [Example 18]: the IC50 at PARP1 is 5.01 nM; on PARP2, > 100000 nM. Besides, the EC50 in the assay on DLD-1 BRCA2(−/−) cells is 3.16 nM; in assay [1] it was 2.51 nM.
For `CCc1cc2ncc(CN3CCN(c4ccc(C#N)cn4)[C@H](C)C3)cc2[nH]c1=O` [Example 21], in that order: 5.01 nM, 1260 nM, 7.94 nM and 12.6 nM.
As to `C[C@@H]1CN(Cc2cnc3cc(C4CC4)c(=O)[nH]c3c2)CCN1c1ccc(F)cn1` [Example 22], the IC50 on PARP1 is 7.94 nM; on PARP2 it was 12600 nM. The EC50 with DLD-1 BRCA2(−/−) cells is 126 nM; in assay [1] it was 158 nM.
On the same counts, the results for `Cc1cc2ncc(CN3CCN(c4ccc(F)cn4)[C@H](C)C3)cc2[nH]c1=O` [Example 23] are 39.8 nM, > 100000 nM, 100 nM and 200 nM.
On to `Cc1cc2ncc(CN3CCN(c4ccc(C#N)cn4)[C@H](C)C3)cc2[nH]c1=O` [Example 24], for which the IC50 on PARP1 was 10 nM; on PARP2, > 100000 nM. Also, the results for the EC50 (in the assay on DLD-1 BRCA2(−/−) cells; in assay [1]) were 79.4 nM and 50.1 nM, respectively.
For `C[C@@H]1CN(Cc2cnc3cc(C4CC4)c(=O)[nH]c3c2)CCN1c1ccc(C#N)cn1` [Example 25], in that order: 6.31 nM, > 100000 nM, 31.6 nM and 50.1 nM.
In the case of `Cc1cc2ncc(CN3CCN(c4ncc(F)cc4F)CC3)cc2[nH]c1=O` [Example 26], the IC50 is > 100 nM at PARP1 and > 100000 nM at PARP2. Moreover, the EC50 (with DLD-1 BRCA2(−/−) cells; in assay [1]) was > 1000 nM each time.
On to `Cc1cc2ncc(CN3CCN(c4ccc(C#N)nc4C4CC4)CC3)cc2[nH]c1=O` [Example 27], for which the results for the IC50 at PARP1 and at PARP2 were 7.94 nM and > 100000 nM, respectively. Further, the EC50 was 12.6 nM with DLD-1 BRCA2(−/−) cells and 39.8 nM in assay [1].
For `Cc1cc2ncc(CN3CCN(c4ncc(C#N)cc4F)CC3)cc2[nH]c1=O` [Example 30], in that order: 15.8 nM, > 100000 nM, > 1000 nM and > 1000 nM.
Regarding `Cc1cc2ncc(CN3CCN(c4ccc(C#N)nc4C(F)F)CC3)cc2[nH]c1=O` [Example 31], the IC50 is 6.31 nM on PARP1 and > 100000 nM on PARP2. The EC50 in the assay on DLD-1 BRCA2(−/−) cells is 15.8 nM; in assay [1] it was 6.31 nM.
With `CCc1cc2ncc(CN3CCN(c4ccc(F)nc4)CC3)cc2[nH]c1=O` [Example 34], the IC50 at PARP1 was 10 nM; on PARP2 it was 50100 nM. The EC50 with DLD-1 BRCA2(−/−) cells was 50.1 nM; in assay [1] it was 39.8 nM.
In the case of `Cc1cc2ncc(CN3CCN(c4ccc(F)cc4C#N)CC3)cc2[nH]c1=O` [Example 35], the IC50 on PARP1 was 10 nM; at PARP2, 63100 nM. Moreover, the EC50 with DLD-1 BRCA2(−/−) cells is 3.16 nM; in assay [1] it was 2.51 nM.
